# Laboratory results from US9580426B2, “Compounds that expand hematopoietic stem cells” (Novartis AG, priority 2008, dated 2017).
# System: Primary adult CD34+ human hematopoietic stem cells (HSCs)
# Assay: % CD34+ assay: HSC expansion screen, dose response
# Assay type: cell-based
# Settings: Homo sapiens, Hematopoietic stem cell; dose response 1 nM to 10 μM; total number and/or percent of CD34+ cells
# Experimental: Primary adult CD34^+ human hematopoietic stem cells (HSCs) are cultured and screened to identify compounds of the invention that facilitate HSC expansion. The cells are analyzed for the presence of the desired phenotype (CD34 expression). Compounds of the invention promote HSC expansion in a dose dependent manner.
# Culture Medium: StemSpan SFEM medium is serum-free medium (StemCell Technologies, Vancouver, BC) supplemented with the following human recombinant cytokines: thrombopoietin, interleukin-6, Flt-3 ligand, and stem cell factor (all from R&D Systems, Minneapolis, Minn.), each at a final concentration of 50 ng/mL, with vehicle (DMSO) or a compound of the invention.
# Human Cell Culture: Fresh human leukophoresed G-CSF mobilized peripheral blood from normal donors, CD34^+ cells from adult bone marrow and cryopreserved human cord blood CD34^+ cells are purchased from AllCells (Berkeley, Calif.). Human CD34^+ cells are enriched from leukophoresed G-CSF mobilized peripheral blood using magnetic cell sorting (MACS, Direct CD34 Progenitor Cell Isolation Kit, Miltenyi Biotec, Bergisch Gladbach, Germany) and cryopreserved. CD34^+ cell purity, checked by flow Cytometry, is higher than 90%. After thawing, the cell viability tested by trypan blue exclusion is higher than 70%. The thawed cells are centrifuged and resuspended with StemSpan medium before being aliquoted for immediate culture. Cells are plated at 10^4 cells/mL in a 384 well plate (Greiner Bio-One, Monroe, N.C.) with 50 μL of medium per well for 7 days. Every 7 days the cells are transferred to larger well plates and fresh medium is added to keep the cell density between 10^4 and 5×10^5 cells/mL. Cells were cultured at 37° C. in 5% CO2. For transplantation, cells were cultured in 75 cm^2 flasks before the cells were transplanted into mice. At a concentration of 1 micromolar, 4-(2-(2-(benzo[b]thiophen-3-yl)-9-isopropyl-9H-purin-6-ylamino)ethyl)phenol (compound 1, table 1; example 1), 4-(2-(2-(benzo[b]thiophen-3-yl)-9-sec-butyl-9H-purin-6-ylamino)ethyl)phenol (compound 2, table 1), and N-(2-(1H-indol-3-yl)ethyl)-2-(benzo[b]thiophen-3-yl)-9-isopropyl-9H-purin-6-amine (compound 9, table 1) each gives rise to a greater than 10-fold increase in the number of CD34^+ CD45RA^− cells derived from 1000 mPB CD34^+ HSCs after 21 days compared to vehicle. Compounds of the invention were assayed in a dose response format (1 nM to 10 μM) to determine the effective concentration that produced the desired effect in 50% of the cells (EC50).
row,SMILES,EC50 [nM]
1,Oc1ccc(CCNc2nc(-c3cncc(F)c3)nc3c2ncn3C2COC2)cc1 [Example 127],470
2,N#Cc1cncc(-c2nc(NCCc3ccc(O)cc3)c3ncn(C4COC4)c3n2)c1 [Example 133],180
3,CC(C)n1ncc2c(NCCc3ccc(O)cc3)nc(-c3csc4ccccc34)nc21 [Example 135],380
4,Cc1cc(O)ccc1CCNc1nc(-c2cccnc2)nc2c1ncn2C(C)C [Example 138],400
5,CC(C)n1cnc2c(NCCc3ccc(O)cc3)nc(-c3ccc(C#N)nc3)nc21 [Example 139],1300
6,CC(C)n1cnc2c(NCCc3ccc(O)cc3)nc(-c3cccnc3C#N)nc21 [Example 143],4300
7,CC(C)n1cnc2c(NCCc3ccc(O)cc3)nc(-c3cncc4ccccc34)nc21 [Example 145],5400
8,CC(C)n1cnc2c(NCCc3ccc(O)c(Cl)c3)nc(-c3cccnc3)nc21 [Example 146],240
9,CC(C)n1cnc2c(NCCc3c[nH]c4ccc(Cl)cc34)nc(-c3cccnc3)nc21 [Example 148],750
10,CC(C)n1cnc2c(NCCc3c[nH]c4ccc(F)cc34)nc(-c3cccnc3)nc21 [Example 149],520
11,Oc1ccc(CCNc2nc(-c3csc4ccccc34)nc3c2ncn3[C@H]2CCOC2)cc1 [Example 152],350
12,"Oc1ccc(CCNc2nc(-c3csc4ccccc34)nc3c2ncn3[C@@H]2CCOC2)cc1 [Example 153, (R)-4-(2-(2-(benzo[b]thiophen-3-yl)-9-(tetrahydrofuran-3-yl)-9H-purin-6-ylamino)ethyl)phenol]",220
13,CC(C)n1cnc2c(NCCc3ccc(O)cc3)nc(-n3cnc4cccnc43)nc21 [Example 159],590
14,CC(C)n1cnc2c(NCCc3ccc(O)cc3)nc(-n3cnc4ncccc43)nc21 [Example 160],1900
15,"CC(C)n1cnc2c(NCCc3ccc(O)cc3)nc(-c3cncc(F)c3)cc21 [Example 161, 4-(2-(6-(5-Fluoropyridin-3-yl)-1-isopropyl-1H-imidazo[4,5-c]pyridin-4-ylamino)ethyl)phenol]",170
16,CC(C)n1cnc2c(NCCc3cccnc3)nc(-c3cncc(F)c3)nc21 [Example 166],7500
17,CC(C)n1cnc2c(NCC(O)c3ccc(O)cc3)nc(-c3cncc(F)c3)nc21 (stereo not drawn) [Example 167],290
18,COc1ccc2[nH]cc(CCNc3nc(-c4cncc(F)c4)nc4c3ncn4C(C)C)c2c1 [Example 172],420
19,CC(C)n1cnc2c(NCCc3ccc(O)nc3)nc(-c3cncc(F)c3)nc21 [Example 174],2200
20,CC(C)n1cnc2c(NCCc3c[nH]c4ncccc34)nc(-c3cncc(F)c3)nc21 [Example 175],420
21,CCN(CC)CCOc1ccc2c(CCNc3nc(-c4cncc(F)c4)nc4c3ncn4C(C)C)c[nH]c2c1 [Example 176],1100
22,CCCc1nccn1-c1nc(NCCc2ccc(O)cc2)c2ncn(C(C)C)c2n1 [Example 181],2500
23,CC(C)n1cnc2c(NCCc3c[nH]c4cc(O)ccc34)nc(-c3cncc(F)c3)nc21 [Example 182],5100

# Continued, values first:
row,EC50 [nM],SMILES
1,19,"CC(C)n1cnc2c(NCCc3ccc(O)cc3)nc(-c3cncc(Cl)c3)nc21 [Example 128, 4-(2-(2-(5-Chloropyridin-3-yl)-9-isopropyl-9H-purin-6-ylamino)ethyl)phenol]"
2,120,CC(C)n1cnc2c(NCCc3ccc(O)cc3)nc(-c3cncc(C(F)(F)F)c3)nc21 [Example 129]
3,1,CCC(C)n1cnc2c(NCCc3c[nH]c4ccccc34)nc(-c3cncc(C#N)c3)nc21 (stereo not drawn) [Example 130]
4,3,CC[C@@H](C)n1cnc2c(NCCc3c[nH]c4ccccc34)nc(-c3cncc(C)c3)nc21 [Example 131R]
5,3,CC[C@H](C)n1cnc2c(NCCc3c[nH]c4ccccc34)nc(-c3cncc(C)c3)nc21 [Example 131S]
6,4,CCC(C)n1cnc2c(NCCc3c[nH]c4ccccc34)nc(-c3cncc(C)c3)nc21 (stereo not drawn) [Example 131]
7,1,CC[C@@H](C)n1cnc2c(NCCc3c[nH]c4ccccc34)nc(-c3cncc(F)c3)nc21 [Example 132R]
8,2,CC[C@H](C)n1cnc2c(NCCc3c[nH]c4ccccc34)nc(-c3cncc(F)c3)nc21 [Example 132S]
9,3,CCC(C)n1cnc2c(NCCc3c[nH]c4ccccc34)nc(-c3cncc(F)c3)nc21 (stereo not drawn) [Example 132]
10,91,CC(C)n1cnc2c(NCCc3ccc(O)cc3)nc(-c3cnccc3C#N)nc21 [Example 140]
11,160,"CC(C)n1ccc2c(NCCc3ccc(O)cc3)nc(-c3cncc(F)c3)nc21 [Example 141, 4-(2-(2-(5-Fluoropyridin-3-yl)-7-isopropyl-7H-pyrrolo[2,3-d]pyrimidin-4-ylamino)ethyl)phenol]"
12,160,Cc1ccc(-c2nc(NCCc3ccc(O)cc3)c3ncn(C(C)C)c3n2)cn1 [Example 144]
13,92,CC(C)n1cnc2c(NCCc3ccc(O)cc3F)nc(-c3cccnc3)nc21 [Example 147]
14,57,Cc1cc(CCNc2nc(-c3cccnc3)nc3c2ncn3C(C)C)ccc1O [Example 150]
15,170,Oc1ccc(CCNc2nc(-c3csc4ccccc34)nc3c2ncn3C2COC2)cc1 [Example 151]
16,5,"CC(CO)n1cnc2c(NCCc3c[nH]c4ccccc34)nc(-c3cncc(F)c3)nc21 (stereo not drawn) [Example 157, 2-(6-(2-(1H-indol-3-yl)ethylamino)-2-(5-fluoropyridin-3-yl)-9H-purin-9-yl)propan-1-ol]"
17,8,"C[C@H](CO)n1cnc2c(NCCc3c[nH]c4ccccc34)nc(-c3cncc(F)c3)nc21 [Example 157R, (R)-2-(6-(2-(1H-indol-3-yl)ethylamino)-2-(5-fluoropyridin-3-yl)-9H-purin-9-yl)propan-1-ol]"
18,3,"C[C@@H](CO)n1cnc2c(NCCc3c[nH]c4ccccc34)nc(-c3cncc(F)c3)nc21 [Example 157S, (S)-2-(6-(2-(1H-indol-3-yl)ethylamino)-2-(5-fluoropyridin-3-yl)-9H-purin-9-yl)propan-1-ol]"
19,12,Fc1cncc(-c2nc(NCCc3c[nH]c4ccccc34)c3ncn([C@@H]4CCOC4)c3n2)c1 [Example 158]
20,140,Cc1ncn(-c2nc(NCCc3ccc(O)cc3)c3ncn(C(C)C)c3n2)c1C [Example 162]
21,44,COc1ccc2c(CCNc3nc(-c4cncc(F)c4)nc4c3ncn4C(C)C)c[nH]c2c1 [Example 169]
22,6,CC(C)n1cnc2c(NCCc3c[nH]c4ccccc34)nc(-c3cncc(F)c3)nc21 [Example 170]
23,12,C=C(C)n1cnc2c(NCCc3c[nH]c4ccccc34)nc(-c3cncc(F)c3)nc21 [Example 173]
24,140,"CC(C)n1cnc2c(NCCc3ccc(O)cc3)cc(-c3cncc(F)c3)nc21 [Example 177, 4-(2-(5-(5-Fluoropyridin-3-yl)-3-isopropyl-3H-imidazo[4,5-b]pyridin-7-ylamino)ethyl)phenol]"
25,3,CCC(C)n1cnc2c(NCCc3c[nH]c4ccccc34)nc(-n3ccnc3C)nc21 (stereo not drawn) [Example 178]
26,130,CCc1nccn1-c1nc(NCCc2ccc(O)cc2)c2ncn(C(C)C)c2n1 [Example 180]
27,10,Cc1cncc(-c2nc(NCCc3c[nH]c4ccccc34)c3ncn(C(C)C)c3n2)c1 [Example 183]
28,8,Cc1nccn1-c1nc(NCCc2c[nH]c3ccccc23)c2ncn(C(C)C)c2n1 [Example 184]
